Compound | effect of ethanol exposure on intact seed germination on media (wheat seed; 70% ethanol, FIG. 2) | germination of intact seeds as measured by root and shoot development on media (wheat seed; sanitization treatments involving ethanol, FIG. 1) | viability of WDSDEs produced from treated seed (WDSDEs) | cleanliness of WDSDEs excised from treated seed (WDSDEs; seed sanitization, 10% Clorox bleach, ethanol used cold (~0° C.)) | effect of soaking WDSDEs on oxygen consumption (wheat WDSDEs) | effect on oxygen consumption when added to the reaction chamber during an oxygen measurement (wheat WDSDEs)
CCO [ethanol] | time-dependent effect | reduced germination | acceptable | less efficient |  | 
O=C(NO)c1ccccc1O [SHAM, salicylhydroxamic acid] |  |  |  |  | No effect | Very little effect

Reference: US20220340916A1, “METHODS FOR TRANSFORMING WHEAT EXPLANTS AND COMPOSITIONS THEREFOR” (MONSANTO TECHNOLOGY LLC, priority 2013, published 2022)
